Assay results reported in patent US5500416A, “Percutaneous absorption promoting agent and dermatologic preparation containing the same” (priority 1987, dated 1996).

Tested on: enucleated skin of a hairless mouse
Assay: Drug permeability test by in vitro diffusion cell
Assay type: in vitro ADME
Conditions: pH 7.2
Experimental: A drug permeability test was conducted for amine oxide, which is the product of the present invention.
Pharmaceutical samples comprising the following composition were prepared.
For an evaluation of the percutaneous absorption promoting effect of a drug with the test substance, a drug permeability test was conducted by in vitro diffusion cell, using the enucleated skin of a hairless mouse. As the diffusion cell device, a vertical film type 2-compartment cell with a diffusion area of 2 cm^2 was employed. The whole skin layer at the back of a 10 to 15 weeks old male hairless mouse was enucleated and mounted on a diffusion cell. In the cell compartment on the medicament sample side, 2 ml of a medicament sample was placed, and 2 ml of a phosphate buffer phisiological saline (pH 7.2) was placed in the cell compartment on the receptor side, and the whole cell maintained at 32° C. in a thermostat tank while gently stirring both phases. After 24 hours, the receptor solution was sampled and the amount of the drug permeated by high performance chromatography to the receptor side quantitated.

Compound | Drug permeability | Drug permeability (Table 5-1, hydroquinone 1.0%, test substance 0.1%, ethanol 20%, 24 hours, 32° C.)
CCCCCCCCCCCCCCCCCC[N+]([O-])(CCO)CCO [Example 5-3, Dihyroxyethylstearylamine oxide] | 30.5% | 
CCCCCCCCCCCCCCCCCC[N+](C)(C)[O-] [Example 5-1, Dimethylstearylamine oxide] | 44.0% | 
CCCCCCCCCCCCCCCCCCCCCC[N+](C)(C)[O-] [Example 5-2, Dimethylbehenylamine oxide] | 28.6% | 

The next lines start with the values.

Drug permeability | Drug permeability (Table 5-1, hydroquinone 1.0%, test substance 0.1%, ethanol 20%, 24 hours, 32° C.) | Compound
11.8% |  | CCCCCCCCCCCCCC[N+](C)(C)[O-] [Example 5-5, Dimethylmyristylamine oxide]
 | 9.4% | CCCCCCCCCCCC[N+](C)(C)[O-] [Example 5-4, Dimethyllaurylamine oxide]
